Experimental data: patent publication US7214690B2, “Tricyclic quinolinone and tricyclic quinoline androgen receptor modulator compounds and methods” (Ligand Pharmaceuticals Incorporated, priority 2001, dated 2007)

Target: T1, GR (Homo sapiens, UniProt P04150)
T1 construct: expressed in transfected cells; host or cells: background cell substantially devoid of endogenous IRs (CV-1 described for the co-transfection assay)
T1 sequence (P04150 1-777): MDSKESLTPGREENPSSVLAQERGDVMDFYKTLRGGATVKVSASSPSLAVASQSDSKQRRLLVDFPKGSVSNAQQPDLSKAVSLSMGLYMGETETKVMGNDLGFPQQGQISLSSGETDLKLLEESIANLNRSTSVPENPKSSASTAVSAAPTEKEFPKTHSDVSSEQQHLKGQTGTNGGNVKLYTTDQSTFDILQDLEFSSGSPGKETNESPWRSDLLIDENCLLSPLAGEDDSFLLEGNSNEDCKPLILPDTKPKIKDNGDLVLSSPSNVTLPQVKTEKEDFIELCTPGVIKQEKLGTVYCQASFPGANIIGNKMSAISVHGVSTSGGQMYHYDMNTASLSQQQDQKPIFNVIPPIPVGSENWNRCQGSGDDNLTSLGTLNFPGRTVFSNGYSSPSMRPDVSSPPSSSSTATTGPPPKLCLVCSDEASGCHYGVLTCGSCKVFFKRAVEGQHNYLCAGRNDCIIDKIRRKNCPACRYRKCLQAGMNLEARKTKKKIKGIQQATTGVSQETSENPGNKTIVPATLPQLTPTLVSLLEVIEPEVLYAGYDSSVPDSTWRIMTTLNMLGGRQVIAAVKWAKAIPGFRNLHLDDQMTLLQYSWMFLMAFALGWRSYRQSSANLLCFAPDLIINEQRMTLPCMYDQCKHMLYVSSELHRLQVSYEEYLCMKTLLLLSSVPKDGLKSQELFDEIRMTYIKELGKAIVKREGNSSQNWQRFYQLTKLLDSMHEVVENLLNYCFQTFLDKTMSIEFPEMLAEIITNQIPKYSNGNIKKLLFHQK
Assay: co-transfection assay, GR
Format: cell-based
Procedure: CV-1 cells (African green monkey kidney fibroblasts) were cultured in the presence of Dulbecco's Modified Eagle Medium (DMEM) supplemented with 10% charcoal resin-stripped fetal bovine serum (CH-FBS) then transferred to 96-well microtiter plates one day prior to transfection.
Three to four replicates were used for each sample.
After 40 hours, the cells were washed with PBS, lysed with a Triton X-100-based buffer and assayed for LUC and β-Gal activities using a luminometer or spectrophotometer, respectively. For each replicate, the normalized response (NR) was calculated as: LUC response/β-Gal rate • where β-Gal rate=β-Gal/β-Gal incubation time.

Compound	IC50 [µM]
CC(C)[C@@H]1COc2c(ccc3[nH]c(=O)cc(C(F)(F)F)c23)N1CC(F)(F)Cl [Compound 124, (3R)-4-(2-Chloro-2,2-difluoroethyl)-2,3,4,7-tetrahydro-3-isopropyl-10-(trifluoromethyl)-8H-[1,4]oxazino[2,3-f]quinolin-8-one]	2.4
C=CCN1c2ccc3[nH]c(=O)cc(C(F)(F)F)c3c2OC[C@H]1CC [Compound 114, (3R)-4-Allyl-3-ethyl-2,3,4,7-tetrahydro-10-(trifluoromethyl)-8H-[1,4]oxazino[2,3-f]quinolin-8-one]	5.9
